Key:
Test in all cases: KinaseProfiler kinase assay
Assay type in all cases: biochemical
[1] = target: EGFR(L861Q)(h) (Homo sapiens, UniProt P00533, L861Q)
Outline: (§1)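 Each enzyme was assayed radiometrically: 40 min room-temperature reaction with [γ-33P]ATP and 10 mM Mg acetate, acid-stopped, filtered, scintillation-counted.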

[2] = target: CK2α2(h) (Homo sapiens, UniProt P19784)
Outline: as §1

[3] = target: MAPK2(m) (Mus musculus, UniProt P63085)
Outline: as §1

[4] = target: PAK5(h) (Homo sapiens, UniProt Q9P286)
Outline: as §1

[5] = target: PI3 Kinase (p110δ/p85α)(h) (Homo sapiens, UniProt O00329)
Outline: as §1

[6] = target: FGFR2(N549H)(h) (Homo sapiens, UniProt P21802, N549H)
Outline: as §1

[7] = target: Rse(h) (Homo sapiens, UniProt Q06418)
Outline: as §1

[8] = target: PKCι(h) (Homo sapiens, UniProt P41743)
Outline: as §1

[9] = target: GRK5(h) (Homo sapiens, UniProt P34947)
Outline: as §1

[10] = target: BTK(R28H)(h) (Homo sapiens, UniProt Q06187, R28H)
Outline: as §1

[11] = target: MST1(h) (Homo sapiens, UniProt Q13043)
Outline: as §1

[12] = target: Met(Y1248D)(h) (Homo sapiens, UniProt P08581, Y1230D)
Outline: as §1

[13] = target: Tec(h) activated (Homo sapiens, UniProt P42680)
Outline: as §1

[14] = target: Fms(h) (Homo sapiens, UniProt P07333)
Outline: as §1

[15] = target: MELK(h) (Homo sapiens, UniProt Q14680)
Outline: as §1

[16] = target: Syk(h) (Homo sapiens, UniProt P43405)
Outline: as §1

[17] = target: PI3 Kinase (p110δ/p85α)(m) (Mus musculus, UniProt O35904)
Outline: as §1

[18] = target: ROCK-II(h) (Homo sapiens, UniProt O75116)
Outline: as §1

[19] = target: TAO2(h) (Homo sapiens, UniProt Q9UL54)
Outline: as §1

[20] = target: Lyn(m) (Mus musculus, UniProt P25911)
Outline: as §1

[21] = target: Itk(h) (Homo sapiens, UniProt Q08881)
Outline: as §1

[22] = target: Aurora-B(h) (Homo sapiens, UniProt Q96GD4)
Outline: as §1

[23] = target: Met(Y1248H)(h) (Homo sapiens, UniProt P08581, Y1230H)
Outline: as §1

[24] = target: CDK7/cyclinH/MAT1(h) (Homo sapiens, UniProt P50613)
Outline: as §1

[25] = target: CK1γ2(h) (Homo sapiens, UniProt P78368)
Outline: as §1

[26] = target: MuSK(h) (Homo sapiens, UniProt O15146)
Outline: as §1

[27] = target: MST3(h) (Homo sapiens, UniProt Q9Y6E0)
Outline: as §1

[28] = target: BrSK1(h) (Homo sapiens, UniProt Q8TDC3)
Outline: as §1

[29] = target: PASK(h) (Homo sapiens, UniProt Q96RG2)
Outline: as §1

[30] = target: PKCα(h) (Homo sapiens, UniProt P17252)
Outline: as §1

[31] = target: IR(h) (Homo sapiens, UniProt P06213)
Outline: as §1

Sequence of BrSK1(h) (Q8TDC3 whole entry): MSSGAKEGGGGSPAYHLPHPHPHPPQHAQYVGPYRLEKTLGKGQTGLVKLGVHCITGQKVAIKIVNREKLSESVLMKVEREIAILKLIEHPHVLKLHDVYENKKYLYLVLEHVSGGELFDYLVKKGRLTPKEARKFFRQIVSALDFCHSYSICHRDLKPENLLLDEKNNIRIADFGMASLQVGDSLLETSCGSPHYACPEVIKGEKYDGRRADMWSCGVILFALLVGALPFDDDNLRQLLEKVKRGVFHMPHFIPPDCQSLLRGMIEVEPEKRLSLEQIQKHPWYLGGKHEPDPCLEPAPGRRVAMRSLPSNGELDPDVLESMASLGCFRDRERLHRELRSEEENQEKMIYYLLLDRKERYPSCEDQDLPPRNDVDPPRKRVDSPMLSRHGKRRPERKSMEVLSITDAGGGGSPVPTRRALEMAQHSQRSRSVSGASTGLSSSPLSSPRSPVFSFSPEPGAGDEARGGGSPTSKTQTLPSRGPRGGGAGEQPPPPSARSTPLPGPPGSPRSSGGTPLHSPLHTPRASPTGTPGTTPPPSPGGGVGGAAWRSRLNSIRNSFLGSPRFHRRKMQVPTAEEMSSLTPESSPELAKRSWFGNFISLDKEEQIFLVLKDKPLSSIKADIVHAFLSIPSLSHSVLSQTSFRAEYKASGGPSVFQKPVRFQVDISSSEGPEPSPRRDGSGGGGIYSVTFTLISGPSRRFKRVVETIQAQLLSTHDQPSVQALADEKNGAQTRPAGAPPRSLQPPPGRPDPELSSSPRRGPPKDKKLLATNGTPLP
Sequence of Rse(h) (Q06418 41-890): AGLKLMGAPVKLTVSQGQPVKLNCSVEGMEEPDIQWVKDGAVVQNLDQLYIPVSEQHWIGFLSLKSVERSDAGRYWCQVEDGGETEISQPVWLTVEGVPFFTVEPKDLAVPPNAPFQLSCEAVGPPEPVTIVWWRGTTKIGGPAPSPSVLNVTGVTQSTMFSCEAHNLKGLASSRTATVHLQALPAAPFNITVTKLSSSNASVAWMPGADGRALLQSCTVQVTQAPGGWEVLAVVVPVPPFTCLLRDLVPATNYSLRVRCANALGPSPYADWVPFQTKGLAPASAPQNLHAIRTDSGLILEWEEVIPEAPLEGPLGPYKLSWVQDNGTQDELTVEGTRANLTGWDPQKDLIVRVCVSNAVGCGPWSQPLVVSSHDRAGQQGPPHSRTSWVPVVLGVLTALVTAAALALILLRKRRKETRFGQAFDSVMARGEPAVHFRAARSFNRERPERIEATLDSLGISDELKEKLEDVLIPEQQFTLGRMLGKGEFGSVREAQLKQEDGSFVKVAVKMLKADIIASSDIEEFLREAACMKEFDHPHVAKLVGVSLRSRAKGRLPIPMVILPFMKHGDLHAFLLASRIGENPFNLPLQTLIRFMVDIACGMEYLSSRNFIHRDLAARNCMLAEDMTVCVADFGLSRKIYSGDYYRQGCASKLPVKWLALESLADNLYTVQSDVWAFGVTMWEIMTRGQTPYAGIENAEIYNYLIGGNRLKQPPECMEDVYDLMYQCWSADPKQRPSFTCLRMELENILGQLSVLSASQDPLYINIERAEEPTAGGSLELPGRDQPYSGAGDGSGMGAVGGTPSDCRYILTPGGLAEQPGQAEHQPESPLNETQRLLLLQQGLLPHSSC
Sequence of Aurora-B(h) (Q96GD4 whole entry): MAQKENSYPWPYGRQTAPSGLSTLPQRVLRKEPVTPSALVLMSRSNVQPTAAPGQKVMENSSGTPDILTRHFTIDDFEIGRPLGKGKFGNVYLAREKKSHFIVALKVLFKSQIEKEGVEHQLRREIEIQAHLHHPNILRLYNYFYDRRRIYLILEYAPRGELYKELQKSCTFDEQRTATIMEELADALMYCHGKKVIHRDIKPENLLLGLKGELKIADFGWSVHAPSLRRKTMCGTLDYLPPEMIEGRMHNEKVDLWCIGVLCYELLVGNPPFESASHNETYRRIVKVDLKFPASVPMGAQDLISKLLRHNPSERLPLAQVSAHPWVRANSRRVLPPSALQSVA
Sequence of CK1γ2(h) (P78368 whole entry): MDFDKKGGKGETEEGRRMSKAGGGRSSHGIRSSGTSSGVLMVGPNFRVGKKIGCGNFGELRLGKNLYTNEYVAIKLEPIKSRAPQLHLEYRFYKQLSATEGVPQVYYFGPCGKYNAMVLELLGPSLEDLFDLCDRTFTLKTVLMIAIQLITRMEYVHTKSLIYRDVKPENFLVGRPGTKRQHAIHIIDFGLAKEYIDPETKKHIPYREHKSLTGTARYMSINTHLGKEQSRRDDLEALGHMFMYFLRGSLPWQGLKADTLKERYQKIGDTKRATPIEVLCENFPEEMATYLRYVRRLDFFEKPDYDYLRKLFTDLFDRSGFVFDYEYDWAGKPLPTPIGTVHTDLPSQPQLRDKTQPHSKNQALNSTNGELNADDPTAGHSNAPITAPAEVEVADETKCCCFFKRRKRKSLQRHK
Sequence of MST3(h) (Q9Y6E0 whole entry): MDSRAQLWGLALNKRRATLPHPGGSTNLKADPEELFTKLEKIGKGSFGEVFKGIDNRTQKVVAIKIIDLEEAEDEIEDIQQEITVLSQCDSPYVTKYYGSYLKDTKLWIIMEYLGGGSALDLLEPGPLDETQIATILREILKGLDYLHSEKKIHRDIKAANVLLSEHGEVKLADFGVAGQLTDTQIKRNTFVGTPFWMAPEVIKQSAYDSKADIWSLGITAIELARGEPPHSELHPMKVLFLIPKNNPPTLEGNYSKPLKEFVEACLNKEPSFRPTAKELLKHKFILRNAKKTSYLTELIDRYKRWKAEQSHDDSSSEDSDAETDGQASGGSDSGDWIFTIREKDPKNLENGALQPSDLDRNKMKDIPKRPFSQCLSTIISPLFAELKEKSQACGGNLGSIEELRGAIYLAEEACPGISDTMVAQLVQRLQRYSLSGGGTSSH
Sequence of MELK(h) (Q14680 whole entry): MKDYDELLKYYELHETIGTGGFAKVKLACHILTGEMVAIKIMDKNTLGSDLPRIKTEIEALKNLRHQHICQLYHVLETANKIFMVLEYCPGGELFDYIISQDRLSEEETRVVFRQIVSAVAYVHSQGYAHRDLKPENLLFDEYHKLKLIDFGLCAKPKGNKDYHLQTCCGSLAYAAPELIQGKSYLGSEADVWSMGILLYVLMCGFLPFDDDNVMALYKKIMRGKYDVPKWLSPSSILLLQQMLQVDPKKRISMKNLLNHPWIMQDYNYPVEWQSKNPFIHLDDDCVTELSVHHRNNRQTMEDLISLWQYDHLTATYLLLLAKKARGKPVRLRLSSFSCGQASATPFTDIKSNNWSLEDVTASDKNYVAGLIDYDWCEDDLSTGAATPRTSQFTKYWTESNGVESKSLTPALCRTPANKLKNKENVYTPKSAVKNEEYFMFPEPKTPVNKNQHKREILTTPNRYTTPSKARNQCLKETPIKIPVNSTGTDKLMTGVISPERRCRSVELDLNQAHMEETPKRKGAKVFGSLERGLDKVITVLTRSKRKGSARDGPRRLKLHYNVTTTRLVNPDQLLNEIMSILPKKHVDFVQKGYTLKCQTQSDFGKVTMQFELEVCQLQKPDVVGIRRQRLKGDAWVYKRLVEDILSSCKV
Sequence of CK2α2(h) (P19784 whole entry): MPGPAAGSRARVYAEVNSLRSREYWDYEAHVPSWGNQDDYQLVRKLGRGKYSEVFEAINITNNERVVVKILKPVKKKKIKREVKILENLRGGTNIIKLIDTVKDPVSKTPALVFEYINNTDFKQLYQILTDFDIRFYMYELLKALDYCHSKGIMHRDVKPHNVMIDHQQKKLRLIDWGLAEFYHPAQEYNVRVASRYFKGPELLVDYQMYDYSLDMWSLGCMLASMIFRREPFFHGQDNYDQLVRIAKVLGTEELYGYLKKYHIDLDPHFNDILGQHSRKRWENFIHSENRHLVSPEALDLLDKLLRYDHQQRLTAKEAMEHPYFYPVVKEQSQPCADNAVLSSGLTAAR
Sequence of MST1(h) (Q13043 whole entry): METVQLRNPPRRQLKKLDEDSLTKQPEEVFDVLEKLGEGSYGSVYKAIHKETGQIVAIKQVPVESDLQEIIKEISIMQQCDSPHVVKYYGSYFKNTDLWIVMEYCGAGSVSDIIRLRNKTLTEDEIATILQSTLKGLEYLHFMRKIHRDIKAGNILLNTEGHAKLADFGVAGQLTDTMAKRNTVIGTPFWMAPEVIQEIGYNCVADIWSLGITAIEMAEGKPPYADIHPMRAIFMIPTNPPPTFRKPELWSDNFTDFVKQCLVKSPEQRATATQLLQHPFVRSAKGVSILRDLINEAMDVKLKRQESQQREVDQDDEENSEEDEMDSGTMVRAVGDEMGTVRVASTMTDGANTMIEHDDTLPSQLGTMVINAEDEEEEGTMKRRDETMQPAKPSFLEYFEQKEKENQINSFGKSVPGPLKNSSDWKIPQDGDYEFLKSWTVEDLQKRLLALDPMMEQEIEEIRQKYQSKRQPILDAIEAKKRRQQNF
Sequence of Lyn(m) (P25911 whole entry): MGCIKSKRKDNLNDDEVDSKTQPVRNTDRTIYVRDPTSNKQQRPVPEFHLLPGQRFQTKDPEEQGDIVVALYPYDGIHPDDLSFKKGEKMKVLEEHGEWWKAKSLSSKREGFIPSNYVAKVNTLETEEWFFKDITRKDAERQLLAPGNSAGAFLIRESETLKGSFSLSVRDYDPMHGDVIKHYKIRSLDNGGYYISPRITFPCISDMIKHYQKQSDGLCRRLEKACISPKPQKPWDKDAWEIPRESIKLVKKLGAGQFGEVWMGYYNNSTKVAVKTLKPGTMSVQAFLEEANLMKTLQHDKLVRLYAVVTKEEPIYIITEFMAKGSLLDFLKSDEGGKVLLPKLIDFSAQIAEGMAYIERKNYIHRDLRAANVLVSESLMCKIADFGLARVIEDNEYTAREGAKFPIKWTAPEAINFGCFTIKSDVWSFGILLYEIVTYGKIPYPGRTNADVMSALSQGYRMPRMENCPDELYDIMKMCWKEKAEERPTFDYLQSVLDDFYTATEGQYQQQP

Cc1cc2c(F)c(Oc3nc(Nc4cc(C5CC5)[nH]n4)cc(N4CCN(C)CC4)n3)ccc2[nH]1 [Compound 10]
inhibition at 0.1 µM [1]: 2%
inhibition at 0.1 µM [2]: -13%
inhibition at 0.1 µM [3]: -16%
inhibition at 0.1 µM [4]: 60%
inhibition at 0.1 µM [5]: 2%
inhibition at 0.1 µM [6]: 100%
inhibition at 0.1 µM [7]: 3%
inhibition at 0.1 µM [8]: 0%
inhibition at 0.1 µM [9]: 18%
inhibition at 0.1 µM [10]: 10%
inhibition at 0.1 µM [11]: 78%
inhibition at 0.1 µM [12]: 80%
inhibition at 0.1 µM [13]: 46%
inhibition at 0.1 µM [14]: 91%
inhibition at 0.1 µM [15]: 69%
inhibition at 0.1 µM [16]: 25%
inhibition at 0.1 µM [17]: -19%
inhibition at 0.1 µM [18]: 11%
inhibition at 0.1 µM [19]: 18%
inhibition at 0.1 µM [20]: 98%
inhibition at 0.1 µM [21]: 31%
inhibition at 0.1 µM [22]: 97%
inhibition at 0.1 µM [23]: 69%
inhibition at 0.1 µM [24]: 44%
inhibition at 0.1 µM [25]: -20%
inhibition at 0.1 µM [26]: 30%
inhibition at 0.1 µM [27]: 85%
inhibition at 0.1 µM [28]: 47%
inhibition at 0.1 µM [29]: 22%
inhibition at 0.1 µM [30]: 4%
inhibition at 0.1 µM [31]: 83%

Cc1cc2c(F)c(Oc3nc(Nc4cc(C5CC5)[nH]n4)cc(N4CCNCC4)n3)ccc2[nH]1 [Compound 11, N-(5-cyclopropyl-1H-pyrazol-3-yl)-2-((4-fluoro-2-methyl-1H-indol-5-yl)oxy)-6-(piperazin-1-yl)pyrimidin-4-amine]
inhibition at 0.1 µM [1]: 34%
inhibition at 0.1 µM [2]: 8%
inhibition at 0.1 µM [3]: 10%
inhibition at 0.1 µM [4]: 68%
inhibition at 0.1 µM [5]: -1%
inhibition at 0.1 µM [6]: 100%
inhibition at 0.1 µM [7]: 11%
inhibition at 0.1 µM [8]: -10%
inhibition at 0.1 µM [9]: -2%
inhibition at 0.1 µM [10]: -7%
inhibition at 0.1 µM [11]: 74%
inhibition at 0.1 µM [12]: 76%
inhibition at 0.1 µM [13]: 20%
inhibition at 0.1 µM [14]: 95%
inhibition at 0.1 µM [15]: 87%
inhibition at 0.1 µM [16]: 36%
inhibition at 0.1 µM [17]: 6%
inhibition at 0.1 µM [18]: 3%
inhibition at 0.1 µM [19]: 16%
inhibition at 0.1 µM [20]: 101%
inhibition at 0.1 µM [21]: 54%
inhibition at 0.1 µM [22]: 98%
inhibition at 0.1 µM [23]: 91%
inhibition at 0.1 µM [24]: 26%
inhibition at 0.1 µM [25]: -16%
inhibition at 0.1 µM [26]: 20%
inhibition at 0.1 µM [27]: 80%
inhibition at 0.1 µM [28]: 40%
inhibition at 0.1 µM [29]: -17%
inhibition at 0.1 µM [30]: -3%
inhibition at 0.1 µM [31]: 84%

Reference: US10245261B2, “Substituted indol-5-ol derivatives and their therapeutic applications” (NantBioScience, Inc., priority 2013, dated 2019)
